Experimental data from patent US20170283885A1, “ALGORITHMS FOR GENE SIGNATURE-BASED PREDICTOR OF SENSITIVITY TO MDM2 INHIBITORS” (DAIICHI SANKYO COMPANY, LIMITED, priority 2014, published 2017).

Tested on: multi-cancer cell line panel
Assay: OncoPanel cytotoxicity assay, whole panel summary
Type: cell-based, human
Protocol: This Example describes an evaluation of the effect of a representative small molecule MDM2i on the growth of cells in a multi-cancer cell line panel. In this Example, the MDM2 inhibitors used were Compound A and Compound B p-toluenensulfonate. The panel included 250 human cancer cell lines (OncoPanel™, Ricerca Biosciences, Painesville, Ohio) that were evaluated in a high content drug screening analysis. The relative IC50 values for the cell lines were determined.
Cells were grown in RPMI 1640, 10% FBS, 2 mM L-alanyl-L-Glutamine, 1 mM Na Pyruvate, or a special medium in a humidified atmosphere of 5% CO2 at 37° C. Cells were seeded into 384-well plates and incubated in a humidified atmosphere of 5% CO2 at 37° C. Test compounds were added 24 hours post cell seeding. […]
Compounds were serially diluted 3.16-fold and assayed over 10 concentrations of inhibitor in a final assay concentration of 0.1% DMSO from the highest test concentration specified in the sample information chapter. Automated fluorescence microscopy was carried out using a GE Healthcare InCell Analyzer 1000, and images were collected with a 4×objective. Twelve bit tiff images were acquired using the InCell Analyzer 1000 3.2 and analyzed with Developer Toolbox 1.6 software.
Cell proliferation was measured by the signal intensity of the incorporated nuclear dye. […]

Structure (SMILES): CC[C@@H]1CNC2(CC2)CN1C(=O)[C@@H]1C[C@@H](F)CN1C(=O)C1=C(C(C)C)N2C(=N[C@@](C)(c3ccc(Cl)nc3)[C@H]2c2ccc(Cl)c(F)c2)S1 [Compound A, [(5R,6S)-5-(4-Chloro-3-fluorophenyl)-6-(6-chloropyridin-3-yl)-6-methyl-3-(propan-2-yl)-5,6-dihydroimidazo[2,1-b][1,3]thiazol-2-yl][(2S,4R)-2-{[(6R)-6-ethyl-4,7-diazaspiro[2.5]oct-7-yl]carbonyl}-4-fluoropyrrolidin-1-yl]methanone]
- share of the cell lines with IC50 values of <1 μM: Approximately 25%
- share of the cell lines with IC50 values of >10: approximately 70%
